Source: patent publication US11963972B2, “Antiviral agents and nucleoside analogs for treatment of Zika virus” (priority 2016, dated 2024)

How the values were obtained:
[1] = Cytotoxicity MTT assay in CEM cells; type: cell-based; settings: human
Excerpt: (§1) The toxicity of the compounds can be assessed in Vero, human PBM, CEM (human lymphoblastoid), and can be assessed in MT-2, and HepG2 cells, as described previously (see Schinazi R. F., Sommadossi J.-P., Saalmann V., Cannon D. L., Xie M.-Y., Hart G. C., Smith G. A. & Hahn E. F. Antimicrob. Agents Chemother. 1990, 34, 1061-67). Cycloheximide can be included as positive cytotoxic control, and untreated cells exposed to solvent can be included as negative controls. The cytotoxicity (IC50) can be obtained from the concentration-response curve using the median effective method described previously (see Chou T.-C. & Talalay P. Adv. Enzyme Regul. 1984, 22, 27-55; Belen'kii M. S. & Schinazi R. F. Antiviral Res. 1994, 25, 1-11).

[2] = Cytotoxicity MTT assay in Vero cells; type: cell-based; settings: African green monkey
Excerpt: as §1

[3] = test system: ZIKV Puerto Rico strain (PRVABC59); assay: ZIKV CPE MTS assay in Huh7 cells; type: cell-based, Zika virus; settings: Zika virus, Huh-7, 120 h, read-out: ZIKV CPE MTS Assay IC50 (μM) Huh7
Protocol: (§2) […] Cell cytopathic effect (CPE) MTS assay (CellTiter 96@k) AQueous One Solution Cell Proliferation Promega kit, Promega) was measured four (Vero) or five (U251 or Huh7) days after compound addition to determine the levels of replication inhibition.

[4] = Cytotoxicity MTT assay in PBM cells; type: cell-based; settings: human
Protocol: v) Cellular Toxicity Assays: Nucleoside and nucleoside monophosphate prodrugs can be evaluated for their potential toxic effects on P4/R5 cells, MT-2 cells and uninfected PHA-stimulated human PBM cell. Log-phase P4/R5, MT-2, and PHA-stimulated human PBM cells can be seeded at 5×10^3 to 5×10^4 cells/well in 96-well cell culture plates containing 10-fold serial dilutions of the test drug. The cultures can be incubated for 2-4 days, after which 3-(4,5-dimethylthiazol-2-yl)-2,5-diphenyltetrazolium bromide (MTT) dye solution (Promega, Madison, WI) can be added to each well and incubated overnight. The reaction can be stopped with stop solubilization solution (Promega, Madison, WI) and plates can be read at a wavelength of 570 nm. The median 50% cytotoxic concentration (CC50) can be determined from the concentration-response curve using the median effect method.
as §1

[5] = test system: ZIKV Puerto Rico strain (PRVABC59); assay: ZIKV CPE MTS assay in Vero cells; type: cell-based, Zika virus; settings: Zika virus; for IC50: 96 h, read-out: ZIKV CPE MTS Assay IC50 (μM) Vero; for inhibition at 20 µM / inhibition at 10 µM: read-out: ZIKV CPE MTS Assay percentage of inhibition at the concentration, Vero
Protocol: as §2

[6] = test system: ZIKV Puerto Rico strain (PRVABC59); assay: ZIKV CPE MTS assay in human neuroblastoma (U251) cells; type: cell-based, Zika virus; settings: Zika virus; for IC50: U-251, 120 h, read-out: ZIKV CPE MTS Assay IC50 (μM) H251
Protocol: as §2

[7] = Cytotoxicity MTT assay in Huh7 cells; type: cell-based; settings: human
Zika virus = assay: Zika-infected Vero cell model, 4G2 antibody staining, FACS; type: cell-based; settings: 72 h, MOI 0.1, Day 3, FACS, read-out: percent inhibition of Zika-infected Vero cells
Protocol: At 8 AM on Day 1, 10,000 cells/well were plated in a 96 well plate. At 2 PM, MOI 0.1 Zika virus was added. At 3 PM, virus inoculum was removed, and various concentrations of drug-containing medium was added, at multiple concentrations (duplicates of […]).
On Day 3, supernatants were harvested, and frozen for later RT-PCR confirmation. Cells were harvested, stained with 4G2 antibody, and intracellular virus was quantified with FACS. The EC50/EC90 were then calculated.
Concentrations of 10, 1, 0.1, 0.01 μM were assayed in duplicate for 10 total drugs. All cells were harvested, but the only cells stained with antibody were those contacted with the following compounds, in the listed concentrations:
All gates were established using uninfected cells as a control, and were maintained for all test conditions.

[8] = Cytotoxicity MTT assay in HepG2 cells; type: cell-based; settings: human
Excerpt: as §1

[9] = U-251, read-out: ZIKV CPE MTS Assay percentage of inhibition at the concentration, H251
[10] = Vero cells, MOI=0.01, four days

| Structure (SMILES) | IC50 [1] [µM] | IC50 [2] [µM] | IC50 [3] [µM] | IC50 ([4]; PBM cells) [µM] | IC50 ([5]; Vero) [µM] | inhibition at 20 µM ([5]; Vero) [%] | IC50 [6] [µM] | inhibition at 20 µM [6, 9] [%] | IC50 [7] [µM] | other results |
| --- | --- | --- | --- | --- | --- | --- | --- | --- | --- | --- |
| CCOC(=O)[C@H](C)NP(=O)(OCC1C(n2cnc3c(N)cc(N)nc32)C[C@](C)(O)[C@@H]1O)Oc1ccccc1 (stereo partly drawn) | > 100 | > 100 | 2.9 | > 100 | > 20 | 1 | > 20 | 42 | > 100 |  |
| CC1(O)C(O)[C@@H](CO)O[C@H]1n1cc(F)c2c(N)ncnc21 (stereo partly drawn) [drawing 91] |  | > 100 |  |  |  |  |  |  | 17.5 | IC50 ([1]; CEM lymphoblastoid cells): 33.6 µM; IC50 ([3]; Huh7 cells, MOI=0.5, five days): 1.7 µM; IC50 ([4]; PHA-stimulated human PBM cells): 83.7 µM; IC50 [5, 10]: 5.1 µM; IC50 ([6]; H251 cells, MOI=0.5, five days): 6.1 µM |
| C[C@@]1(O)C(O)[C@@H](CO)O[C@H]1n1cnc2c(N)ncnc21 (stereo partly drawn) |  |  |  |  |  |  |  |  |  | IC50 ([3]; Huh7 cells, MOI=0.5, five days): 3.4 µM; IC50 [5, 10]: 20 µM; IC50 ([6]; H251 cells, MOI=0.5, five days): > 20 µM; inhibition at 20 µM ([6]; U-251, H251 cells, at 20 μM, read-out: ZIKV CPE MTS Assay percentage of inhibition at the concentration, H251): 24% |
| C[C@@]1(O)C(n2cnc3c(N)ncnc32)O[C@H](CO)[C@@H]1O (stereo partly drawn) |  | > 100 |  |  |  |  |  |  |  | IC50 ([1]; CEM lymphoblastoid cells): > 100 µM; IC50 ([3]; Huh7 cells, MOI=0.5, five days): 1.7 µM; IC50 ([4]; PHA-stimulated human PBM cells): > 100 µM; IC50 [5, 10]: 13.1 µM; IC50 ([6]; H251 cells, MOI=0.5, five days): > 10 µM; inhibition at 10 µM ([6]; U-251, H251 cells, at 10 μM, read-out: ZIKV CPE MTS Assay percentage of inhibition at the concentration, H251): 37% |
| CC(C)OC(=O)[C@H](C)N[P@](=O)(OC[C@H]1O[C@@H](n2ccc(=O)[nH]c2=O)[C@](C)(F)[C@@H]1O)Oc1ccccc1 | > 100 | > 100 | 5.7 | > 100 | > 20 | 1 | > 20 | 17 | 49.3 |  |
| O=c1nc(NO)ccn1[C@@H]1O[C@H](CO)C(O)C1O (stereo partly drawn) [drawing 107] |  | 7.7 |  |  |  |  |  |  |  | IC50 ([1]; CEM lymphoblastoid cells): 2.5 µM; IC50 ([3]; Huh7 cells, MOI=0.5, five days): 5.1 µM; IC50 ([4]; PHA-stimulated human PBM cells): 30.6 µM; IC50 [5, 10]: 3.2 µM; IC50 ([6]; H251 cells, MOI=0.5, five days): 4.3 µM |
| CC1(O)C(O)[C@@H](CO)O[C@H]1n1cc(F)c2c(N)ncnc21 (stereo in doubt) |  |  |  |  |  |  |  |  |  | inhibition at 0.01 µM (Zika virus): 21%; inhibition at 0.1 µM (Zika virus): 59%; inhibition at 1 µM (Zika virus): 73%; inhibition at 10 µM (Zika virus): 83% |
| CC(C)OC(=O)[C@H](C)NP(=O)(OC[C@H]1O[C@@H](n2ccc(N)nc2=O)C(F)(Cl)C1O)Oc1ccccc1 (stereo partly drawn) | > 100 | > 100 |  | > 100 | < 10 |  |  |  |  | inhibition at 10 µM ([5]; Vero): 80% |
| O=c1nc(NO)ccn1[C@@H]1O[C@H](CO)C(O)C1O (stereo partly drawn) [drawing 85] |  |  |  |  |  |  |  |  |  | inhibition at 0.01 µM (Zika virus): 0%; inhibition at 0.1 µM (Zika virus): 5%; inhibition at 1 µM (Zika virus): 35%; inhibition at 10 µM (Zika virus): 57% |
| C[C@@H]1C[C@@H]([C@H](O)CC2CC(=O)NC(=O)C2)C(=O)[C@@H](C)C1 | 0.2 | 0.2 |  | 0.9 |  |  |  |  |  | IC50 [8]: 0.3 µM |
| O=C(O)c1cc(/N=N/c2ccc(S(=O)(=O)Nc3ccccn3)cc2)ccc1O [drawing 106] |  | > 100 |  |  |  |  |  |  |  | IC50 ([1]; CEM lymphoblastoid cells): > 100 µM; IC50 ([4]; PHA-stimulated human PBM cells): > 100 µM; IC50 [8]: > 100 µM |
| CC(C)OC(=O)[C@H](C)NP(=O)(OCC1O[C@@H](n2cnc3c(N)nc(N)nc32)[C@](C)(O)[C@@H]1O)Oc1ccccc1 (stereo partly drawn) | > 100 | > 100 | 3.7 | > 100 | > 20 | 1 | > 20 | 25 | > 100 |  |
| CCOC(=O)[C@@H](C)NP(=O)(OC[C@H]1O[C@@H](n2ccc(NO)nc2=O)C(C)(O)C1O)Oc1ccccc1 (stereo partly drawn) | > 100 | > 100 | 5 | > 100 | > 20 | 1 | > 20 | 27 | > 100 |  |
| CC(C)OC(=O)[C@H](C)NP(=O)(OCC1O[C@@H](n2cnc3c(N=[N+]=[N-])nc(N)nc32)[C@](C)(O)[C@@H]1O)Oc1ccccc1 (stereo partly drawn) | > 100 | > 100 | 11.5 | > 100 | > 20 | 1 | > 20 | 20 | > 100 |  |
| CCOC(=O)[C@H](C)NP(=O)(OCC1O[C@@H](n2cnc3c(NOC)nc(N)nc32)[C@](C)(O)[C@@H]1O)Oc1ccccc1 (stereo partly drawn) | 28 | > 100 | 4.7 | > 100 | > 20 | 19 | > 20 | 43 | 94 |  |
| CC(C)OC(=O)[C@H](C)NP(=O)(OC[C@H]1O[C@@H](n2ccc(NO)nc2=O)C(C)(O)C1O)Oc1ccccc1 (stereo partly drawn) | > 100 | > 100 | 0.8 | > 100 | > 20 | 1 | > 20 | 3 | > 100 |  |
| CC(C)OC(=O)[C@H](C)NP(=O)(OC[C@H]1O[C@@H](n2cc(F)c3c(N)ncnc32)[C@](C)(O)C1O)Oc1ccccc1 (stereo partly drawn) | 92.1 | > 100 | 7.6 | 34.7 | > 20 |  | > 10 |  |  | inhibition at 10 µM [6, 9]: 1% |
| CC(C)OC(=O)[C@H](C)NP(=O)(OC[C@H]1O[C@@H](n2ccc(=O)[nH]c2=O)[C@@](F)(Cl)C1O)Oc1ccccc1 (stereo partly drawn) | > 100 | > 100 |  | > 100 | < 10 |  |  |  |  | inhibition at 10 µM ([5]; Vero): 76% |
